Values of other authors in patent US11576926B2, “Composition for use in the prevention and/or treatment of epistaxis” (priority 2018, dated 2023).

Experiments:
fibroblast = conditions: both in vitro and in vivo
dry rhinitis = conditions: 20 ml spray with 5% dexpanthenol; vs placebo
[1] = system: ultraviolet-induced erythema; conditions: in vivo
[2] = system: epithelial tissue in mouse models; conditions: dexpanthenol cream; after 20 days; vs control group
[3] = system: seasonal allergic rhinitis; conditions: 800 mg/day in addition to the classic anti-allergy treatment; 112 patients
[4] = system: TPA (12-O-tetradecanoylphorbol-13-acetate) induced inflammatory response; conditions: topical, 30 minutes before TPA
[5] = system: corneal wounds in rat models with type 1 diabetes; conditions: solution containing 0.3% HA
[6] = system: nasal mucosa after surgery in the nasal cavity
Escherichia coli = conditions: silver ions
[7] = system: non-allergic and idiopathic rhinitis
Staphylococcus aureus = conditions: silver ions
rhinitis sicca syndrome = conditions: nasal spray; 0.5% ectoin, or 0.5% ectoin and 1.0% dexpanthenol
[8] = patients who received the therapy, 90 patients

## CC(C)(CO)[C@@H](O)C(=O)NCCCO [dexpanthenol, Dexpanthenol]
Epidermal wounds; compared to placebo
  epidermal regeneration (transepidermal water loss monitoring): significant acceleration of epidermal regeneration
Epidermal wounds; dexpanthenol emulsion
  erythema of epidermal wounds: reduction in erythema
Epidermal wounds; monitored by transepidermal water loss
  re-epithelialization in wound healing: Accelerated re-epithelialization
fibroblast
  fibroblast proliferation: activate fibroblast proliferation
Dry rhinitis
  symptoms of rhinitis (scabs, nasal respiratory capacity): improving the symptoms of rhinitis
[1]
  effect on experimental ultraviolet-induced erythema: anti-inflammatory effect
[2]
  regeneration rate of epithelial tissue: statistically higher than the control group

## Vitamin E
[3]
  nasal symptoms associated with allergic rhinitis: reduction of the nasal symptoms
[4]
  activity of myeloperoxidase (MPO): inhibits
  activity of xanthine oxidase (XO): inhibits
  lipid peroxidation (LPO): inhibits
  release of hydrogen peroxide: inhibits

## Hyaluronic acid
[5]
  re-epithelialization of corneal wounds: statistically significant in enhancing re-epithelialization
[6]; after the first week of treatment
  formation of bloody scabs: prevented excessive formation of bloody scabs
[6]; all trial participants
  tolerability: well tolerated
[6]; cream with 2 mg HA per g, 6-week treatment, vs ointments based on plant extracts, 56 patients
  recovery (healing of the nasal mucosa): recover faster and more effectively than the ointment group
[6]; during the trial
  adverse effects: No adverse effects were reported

## [Ag] [silver, Silver]
Escherichia coli
  antibacterial effect (structural changes, permeability, ion transport): eventually leading to death
[7]; human, in vivo
  improvement in the condition of the nasal epithelium, share of patients: over 70%
  treatment effect compared to placebo: statistically significant compared to placebo
[7]; [8]
  improvement in the nasal decongestion, share of cases: 80%
  improvement in the rhinorrhea, share of cases: 93%
Staphylococcus aureus
  antibacterial effect (structural changes, permeability, ion transport): eventually leading to death

## CC1=NCC[C@@H](C(=O)O)N1 [ectoin]
Rhinitis sicca syndrome
  nasal obstruction, rhinorrhea and crusting: decreased significantly
  recurrent nose bleeding, pharyngitis, exudate viscosity during inflammatory phenomena and cacosmia: this did not occur
